Measured values taken from patent publication US12617771B2, “Diphenylpyrazole compound, and preparation method therefor and application thereof” (NORTHWEST A&F UNIVERSITY, priority 2021, dated 2026).
Where a name gives a salt, the structure may show the parent alone.

Key:
[1] = test system: high resistant strains II of Plutella xylostella (Lianzhou insect source); assay: Insecticidal synergistic activity with chlorantraniliprole, high resistant strains II (Lianzhou insect source); type: in vivo; conditions: for Resistance ratio to chlorantraniliprole: high resistant strains II (Lianzhou)
Method: (§1) Experiment: 96% chlorantraniliprole (Chl) original drug was prepared into mother liquor with a concentration of 50000 mg/L. During the test, 6 treatment solutions with concentrations of 500, 250, 125, 62.5, 31.25 and 15.63 mg/L were prepared. 200 mg/L of the compound PXG22 of the present invention was added to each treatment solution, 200 mg/L of diethyl maleate (DEM) was used as the control synergist, and water was used as another control. The Plutella xylostella (Linnaeus) larvae was collected from a vegetable field in Yunnan Province. Healthy 3rd instar larvae of the same age were selected for indoor biological activity assay.
(§2) Clean wild cabbage leaves were cut into discs with a diameter of 6.5 cm (avoiding main veins). The leaves were soaked in the pesticide solution for 10 seconds, then taken out, dried at 25° C., and placed in a petri dish with a diameter of 6.5 cm. 10 larvae of the resistant strains of Plutella xylostella at the early stage of 3rd instar were placed in each petri dish, which was covered with double-layer absorbent roll paper, and covered by the upper cover of the petri dish. It was placed face up in an incubator at a temperature of 25±1° C., a relative humidity of 65%-70%, and a light ratio (L:D) of 16: 8 h. Each treatment was replicated 4 times with 10 larvae per replicate. […] The test process is strictly in accordance with the standard: NY/T 1154.7-2006.
(§3) Experimental data analysis was carried out using practical statistical analysis and its computer processing platform (DPS) (TANG Qiyi et al., 1997). The toxicity regression equation of each agent was established, LC50 value and 95% confidence limit were calculated.
(§4) Experiment: The method was the same as in Experimental example 4, and the tested Plutella xylostella was the high resistant strains II against chlorantraniliprole (Lianzhou source). The added concentrations of the compound PXG22 of the present invention were 200 mg/L, 100 mg/L, 50 mg/L and 25 mg/L, and the added concentration of diethyl maleate (DEM) of the control synergist was maintained at 200 mg/L.

[2] = test system: resistant strains of Plutella xylostella; assay: Insecticidal synergistic activity with chlorantraniliprole, leaf dip, resistant strains (Yunnan); type: in vivo; conditions: for Resistance ratio to chlorantraniliprole: chlorantraniliprole alone or with 200 mg/L synergist, 48 hours; for LC50 of chlorantraniliprole solution: in vivo
Method: as §1, §2, §3

[3] = test system: ultra-high resistant strains of Plutella xylostella (Huizhou insect source); assay: Insecticidal synergistic activity with chlorantraniliprole, ultra-high resistant strains (Huizhou insect source); type: in vivo; conditions: for Resistance ratio to chlorantraniliprole: chlorantraniliprole alone or with 200 mg/L synergist, ultra-high resistant strains (Huizhou); for LC50 of chlorantraniliprole solution: in vivo
Method: as §1, §2, §3
Experiment: The method was the same as in Experimental Example 4. The tested Plutella xylostella was ultra-high resistance strains to chlorantraniliprole (Huizhou insect source). The compound PXG22 of the present invention was added at a concentration of 200 mg/L. The control synergist diethyl maleate (DEM) was added at a concentration of 200 mg/L.

[4] = test system: high resistant strains I of Plutella xylostella (Lianzhou insect source); assay: Insecticidal synergistic activity with chlorantraniliprole, high resistant strains I (Lianzhou insect source); type: in vivo; conditions: for Resistance ratio to chlorantraniliprole: high resistant strains I (Lianzhou)
Method: as §1, §2, §3
as §4, with “I” for “II”, “100” for “100 mg/L, 50”, “50” for “25”

[5] = test system: resistant strains of Plutella xylostella; assay: Insecticidal synergistic activity with indoxacarb, leaf dip, resistant strains (Huizhou); type: in vivo; conditions: for LC50 of indoxacarb: in vivo; for Resistance ratio to indoxacarb: indoxacarb alone or with 200 mg/L synergist, 48 hours
Method: as §1, with “Experiment: 95% indoxacarb (Ind)” for “Experiment: 96% chlorantraniliprole (Chl)”, “the compounds PXG1, PXG2 and” for “the compound”, “invention were” for “invention was”, “in Huizhou city, Guangdong” for “in Yunnan”
as §2, §3

PxGSTσ1 = PxGSTσ1 (Plutella xylostella, UniProt Q6F436); assay: Inhibition of PxGSTσ1 recombinant protein; type: biochemical; conditions: read-out: 100 μM Inhibition rate %
In short: (§5)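 Recombinant Plutella xylostella GSTs (1 μg) preincubated with compound in 100 mM PBS pH 7.2, 10 min, 30 °C; 1 mM CDNB and 1 mM GSH in PBS then added. A340 read every 1 min for 5 min; inhibition from A340 change vs control, IC50 by curve fit, triplicate.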

[6] = target: Helicoverpa armigera GSTs; assay: Inhibition of total GSTs enzyme of Helicoverpa armigera (CDNB method); type: biochemical
In short: (§6)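 Total GSTs were taken from the 14,000 g supernatant of larval/nymph homogenate in 100 mM sodium phosphate with 1 mM EDTA, pH 7.2. Enzyme (5 μg) was preincubated with compound in PBS pH 7.2 containing 1 mM GSH for 10 min at 30 °C, then started with buffer containing 1 mM CDNB. IC50 was derived from inhibition of the 5-min ΔA340, done in triplicate.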

PxGSTσ2 = PxGSTσ2 (Plutella xylostella, UniProt Q6F443); assay: Inhibition of PxGSTσ2 recombinant protein; type: biochemical; conditions: read-out: 100 μM Inhibition rate %
In short: as §5

Pyrausta nubilalis GSTs = assay: Inhibition of total GSTs enzyme of Pyrausta nubilalis (CDNB method); type: biochemical
In short: as §6

PxGSTε3 = PxGSTε3 (Plutella xylostella, UniProt O77409); assay: Inhibition of PxGSTε3 recombinant protein; type: biochemical; conditions: read-out: 100 μM Inhibition rate %
In short: as §5

Mythimna separata GSTs = assay: Inhibition of total GSTs enzyme of Mythimna separata (CDNB method); type: biochemical; conditions: 100 μM
In short: as §6

Chilo suppressalis GSTs = assay: Inhibition of total GSTs enzyme of Chilo suppressalis (CDNB method); type: biochemical
In short: as §6

[7] = test system: Spodoptera frugiperda GSTs; assay: Inhibition of total GSTs enzyme of Spodoptera frugiperda (CDNB method); type: biochemical; conditions: 100 μM
In short: as §6

Spodoptera litura GSTs = assay: Inhibition of total GSTs enzyme of Spodoptera litura (CDNB method); type: biochemical
In short: as §6

PxGSTδ1 = PxGSTδ1 (Plutella xylostella, UniProt D7URW9); assay: Inhibition of PxGSTδ1 recombinant protein; type: biochemical; conditions: read-out: 100 μM Inhibition rate %
In short: as §5

Plutella xylostella GSTs = assay: Inhibition of total GSTs enzyme of Plutella xylostella (CDNB method); type: biochemical
In short: as §6

Carposina sasakii GSTs = assay: Inhibition of total GSTs enzyme of Carposina sasakii (CDNB method); type: biochemical
In short: as §6

Nilaparvata lugens GSTs = assay: Inhibition of total GSTs enzyme of Nilaparvata lugens (CDNB method); type: biochemical; conditions: 100 μM
In short: as §6

[8] = Plutella xylostella, read-out: LC50 of chlorantraniliprole solution
[9] = chlorantraniliprole alone or with 200 mg/L synergist

Sequence of PxGSTσ2 (Q6F443 entry or part of it): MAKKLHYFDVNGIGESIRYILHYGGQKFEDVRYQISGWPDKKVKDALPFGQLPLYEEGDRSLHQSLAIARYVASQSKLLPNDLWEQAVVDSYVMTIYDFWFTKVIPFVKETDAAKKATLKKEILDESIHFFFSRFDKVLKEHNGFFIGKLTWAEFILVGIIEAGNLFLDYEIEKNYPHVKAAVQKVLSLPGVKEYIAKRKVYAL
Sequence of PxGSTδ1 (D7URW9 entry or part of it): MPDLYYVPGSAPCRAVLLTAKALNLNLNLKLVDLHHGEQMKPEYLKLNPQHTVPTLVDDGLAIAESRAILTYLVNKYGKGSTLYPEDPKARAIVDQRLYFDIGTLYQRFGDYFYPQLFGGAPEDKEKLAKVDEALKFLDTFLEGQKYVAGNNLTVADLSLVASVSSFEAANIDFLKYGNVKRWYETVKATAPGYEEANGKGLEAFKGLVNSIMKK
Sequence of PxGSTε3 (O77409 entry or part of it): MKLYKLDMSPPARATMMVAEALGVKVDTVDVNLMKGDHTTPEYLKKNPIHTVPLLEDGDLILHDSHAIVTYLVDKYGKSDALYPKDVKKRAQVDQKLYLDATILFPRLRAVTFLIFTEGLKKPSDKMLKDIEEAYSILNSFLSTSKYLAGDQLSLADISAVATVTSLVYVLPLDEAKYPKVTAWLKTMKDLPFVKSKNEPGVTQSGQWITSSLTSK
Sequence of PxGSTσ1 (Q6F436 entry or part of it): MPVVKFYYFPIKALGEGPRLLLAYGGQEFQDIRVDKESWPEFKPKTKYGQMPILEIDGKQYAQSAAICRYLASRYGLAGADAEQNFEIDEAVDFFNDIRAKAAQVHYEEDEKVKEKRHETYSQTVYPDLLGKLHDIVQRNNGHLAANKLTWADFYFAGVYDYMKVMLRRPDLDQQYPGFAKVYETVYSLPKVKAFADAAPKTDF

Compound | Resistance ratio to chlorantraniliprole [1, 9] | Resistance ratio to chlorantraniliprole [2] | Resistance ratio to chlorantraniliprole [3] | Resistance ratio to chlorantraniliprole [4, 9] | LC50 of indoxacarb [5] [µg/mL] | Resistance ratio to indoxacarb [5] | LC50 of chlorantraniliprole solution [2] [µg/mL] | LC50 of chlorantraniliprole solution [3] [µg/mL] | inhibition at 100 µM (PxGSTσ1) [%] | inhibition at 100 µM (PxGSTσ2) [%] | inhibition at 100 µM (PxGSTε3) [%] | inhibition at 100 µM (PxGSTδ1) [%] | also measured
CNC(=O)c1cc(Cl)cc(C)c1NC(=O)c1cc(Br)nn1-c1ncccc1Cl [Chl, Chlorantraniliprole, reference compound] | 631.26 | 479 | 2188.61 | 583.74 | – | – | – | – | – | – | – | – | LC50 [1, 8]: 145 µg/mL; LC50 ([2]; Plutella xylostella, foliar, 48 h, read-out: LC50 of chlorantraniliprole solution): 110 µg/mL; LC50 [3, 8]: 503 µg/mL; LC50 [4, 8]: 134 µg/mL
CCOC(=O)/C=C\C(=O)OCC [DEM, diethyl maleate, reference compound] | 469.52 | 217.48 | 1925.26 | 232 | 54.11 | 104.06 | 50.02 | 442.81 | – | – | – | – | LC50 of chlorantraniliprole solution ([1]; in vivo): 107.99 µg/mL; LC50 of chlorantraniliprole solution ([4]; in vivo): 53.36 µg/mL
O=C(NNC(=O)c1cc(-c2ccccc2)nn1-c1ccccc1)c1cc[nH]c(=O)c1 [PXG1, N′-(1,3-diphenyl-1H-pyrazol-5-yl-carbonyl)-2-oxo-1,2-dihydropyridinyl-4-carbohydrazide] | – | – | – | – | 59.13 | 113.71 | – | – | 25.5 | 58.1 | 17.6 | 68.9 | IC50 [6]: 52.8 µM; 100 μM Inhibition rate % ([6]; 100 μM): 77.22%; IC50 (Pyrausta nubilalis GSTs): 12.1 µM; 100 μM Inhibition rate % (Pyrausta nubilalis GSTs; 100 μM): 87.80%; 100 μM Inhibition rate % (Mythimna separata GSTs): 95.19%; IC50 (Chilo suppressalis GSTs): 8.24 µM; 100 μM Inhibition rate % (Chilo suppressalis GSTs; 100 μM): 92.32%; 100 μM Inhibition rate % [7]: 58.40%; IC50 (Spodoptera litura GSTs): 17.7 µM; 100 μM Inhibition rate % (Spodoptera litura GSTs; 100 μM): 80.06%; IC50 (Plutella xylostella GSTs): 27.6 µM; 100 μM Inhibition rate % (Plutella xylostella GSTs; 100 μM): 70.90%; IC50 (Carposina sasakii GSTs): 52.6 µM; 100 μM Inhibition rate % (Carposina sasakii GSTs; 100 μM): 71.91%; 100 μM Inhibition rate % (Nilaparvata lugens GSTs): 100.60%
O=C(NNC(=O)c1cc(-c2ccccc2)nn1-c1ccccc1)c1cc(=O)[nH]c2ccccc12 [PXG22, N′-(1,3-diphenyl-1H-pyrazol-5-yl-carbonyl)-2-oxo-1,2-dihydroquinoline-4-yl-carbohydrazide] | 243.13 | 61.04 | 645.43 | 175.82 | 51.21 | 98.48 | 14.04 | 148.45 | 45.7 | 76.7 | 65.8 | 78.8 | Resistance ratio to chlorantraniliprole ([1]; 25 mg/L PXG22 added): 341.48; Resistance ratio to chlorantraniliprole ([1]; 50 mg/L PXG22 added): 312.52; Resistance ratio to chlorantraniliprole ([1]; 100 mg/L PXG22 added): 195.04; Resistance ratio to chlorantraniliprole ([4]; 50 mg/L PXG22 added): 216.91; Resistance ratio to chlorantraniliprole ([4]; 100 mg/L PXG22 added): 92
